Data reported in US20260216164A1, “INDOLE COMPOUND DECOMPOSING IKZF2, AND USE THEREOF” (KOREA RESEARCH INSTITUTE OF CHEMICAL TECHNOLOGY, priority 2023, published 2026).

Legend:
IKZF2 (Helios) = IKZF2 (Helios) (Homo sapiens, UniProt Q96SW2+Q9UKS7); assay: Screening of DC50 (nM) and Dmax (%) using WB-IKZF2 cell line (Western blot); assay type: cell-based; design: endogenous in cells; conditions: 6 hours; for DC50: class symbols, read-out: WB-IKZF2 DC 50
Method: Experimental Example 2. Screening of DC50 (nM) and Dmax (%) Using WB-IKZF2 Cell Line
Candidate degraders were serially diluted and treated in cells cultured in complete medium, followed by incubation for 6 hours at 37° C. in a CO2 incubator. After 6 hours, the cells were harvested and lysed in RIPA buffer (150 mM NaCl, 1% Triton X-100, 1% sodium deoxycholate, 0.1% SDS, 50 mM Tris-HCl pH 7.5, and 2 mM EDTA) containing a protease inhibitor cocktail (Roche). The mixture was vortexed every 10 minutes and incubated on ice for 30 minutes, followed by centrifugation at 13,000 rpm for 10 minutes at 4° C. to isolate proteins. The isolated proteins were quantified using the Bradford assay (Bio-Rad, 5000006). Proteins were separated on 8% SDS-polyacrylamide gel, transferred onto nitrocellulose membranes (Amersham, 10600002), and incubated with primary antibodies at 4° C. for 18 hours. The following primary antibodies were used: anti-Helios rabbit monoclonal antibody (Cell Signaling, 42427, 1:3000) and anti-β-actin mouse monoclonal antibody (Santa Cruz, sc-47778, 1:5000). β-actin was used as a loading control. The next day, the membranes were washed with 1×TBST for 30 minutes and incubated with HRP-conjugated secondary antibodies corresponding to the primary antibodies at room temperature for 1 hour. The following secondary antibodies were used: anti-mouse IgG HRP-linked antibody (Sigma, A9044, 1:5000) and anti-rabbit IgG HRP-linked antibody (Cell Signaling, 7074, 1:5000). After washing with 1×TBST for 30 minutes, protein expression was visualized using the Pierce ECL Western blotting substrate (Thermo Fisher, 32106), and images were captured using a chemiluminescence image analysis system (GE Healthcare, AI680). The obtained images were quantified using the ImageJ software.

Helios (IKZF2) = Helios (IKZF2) (Homo sapiens, UniProt Q96SW2+Q9UKS7); assay: Screening of Helios protein degraders using Nano-Glo HiBiT cell line (HiBiT-IKZF2); assay type: cell-based; conditions: for remaining activity at 1 µM: compound 1 μM, read-out: HiBiT-IKZF2 Residual amount of Helios (%) 1 μM; for remaining activity at 1 µM / remaining activity at 10 µM: 6 hours, HiBiT-Helios knock-in Jurkat cells; for remaining activity at 10 µM: compound 10 μM, read-out: HiBiT-IKZF2 Residual amount of Helios (%) 10 μM
Helios (IKZF2), sequence (Q9UKS7 whole entry): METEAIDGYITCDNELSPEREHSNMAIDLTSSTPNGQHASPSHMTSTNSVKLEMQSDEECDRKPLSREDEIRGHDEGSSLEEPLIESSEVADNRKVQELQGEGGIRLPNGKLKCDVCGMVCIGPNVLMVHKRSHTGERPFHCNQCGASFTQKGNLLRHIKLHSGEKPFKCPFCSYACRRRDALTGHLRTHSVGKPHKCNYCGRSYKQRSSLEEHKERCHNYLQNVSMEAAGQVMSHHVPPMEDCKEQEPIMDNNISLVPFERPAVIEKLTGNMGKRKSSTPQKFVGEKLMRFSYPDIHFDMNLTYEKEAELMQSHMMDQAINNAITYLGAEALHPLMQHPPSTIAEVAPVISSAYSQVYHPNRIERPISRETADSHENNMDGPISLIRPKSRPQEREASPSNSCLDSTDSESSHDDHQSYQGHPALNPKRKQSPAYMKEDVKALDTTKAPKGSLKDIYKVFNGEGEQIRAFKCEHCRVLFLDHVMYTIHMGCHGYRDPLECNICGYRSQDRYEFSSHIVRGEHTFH
Helios (IKZF2), sequence (Q96SW2 whole entry): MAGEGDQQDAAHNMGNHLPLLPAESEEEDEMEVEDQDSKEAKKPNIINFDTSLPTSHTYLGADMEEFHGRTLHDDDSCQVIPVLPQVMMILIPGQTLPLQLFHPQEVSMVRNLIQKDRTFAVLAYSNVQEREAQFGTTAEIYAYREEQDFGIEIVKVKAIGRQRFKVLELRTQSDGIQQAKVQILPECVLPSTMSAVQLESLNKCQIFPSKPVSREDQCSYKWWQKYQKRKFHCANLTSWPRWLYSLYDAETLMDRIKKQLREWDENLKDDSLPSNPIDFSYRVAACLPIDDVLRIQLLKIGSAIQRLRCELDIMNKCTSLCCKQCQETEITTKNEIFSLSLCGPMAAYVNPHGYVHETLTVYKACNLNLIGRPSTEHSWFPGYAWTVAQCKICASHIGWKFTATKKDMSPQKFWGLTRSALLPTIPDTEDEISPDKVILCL
Helios (IKZF2), sequence (Q16531 whole entry partner): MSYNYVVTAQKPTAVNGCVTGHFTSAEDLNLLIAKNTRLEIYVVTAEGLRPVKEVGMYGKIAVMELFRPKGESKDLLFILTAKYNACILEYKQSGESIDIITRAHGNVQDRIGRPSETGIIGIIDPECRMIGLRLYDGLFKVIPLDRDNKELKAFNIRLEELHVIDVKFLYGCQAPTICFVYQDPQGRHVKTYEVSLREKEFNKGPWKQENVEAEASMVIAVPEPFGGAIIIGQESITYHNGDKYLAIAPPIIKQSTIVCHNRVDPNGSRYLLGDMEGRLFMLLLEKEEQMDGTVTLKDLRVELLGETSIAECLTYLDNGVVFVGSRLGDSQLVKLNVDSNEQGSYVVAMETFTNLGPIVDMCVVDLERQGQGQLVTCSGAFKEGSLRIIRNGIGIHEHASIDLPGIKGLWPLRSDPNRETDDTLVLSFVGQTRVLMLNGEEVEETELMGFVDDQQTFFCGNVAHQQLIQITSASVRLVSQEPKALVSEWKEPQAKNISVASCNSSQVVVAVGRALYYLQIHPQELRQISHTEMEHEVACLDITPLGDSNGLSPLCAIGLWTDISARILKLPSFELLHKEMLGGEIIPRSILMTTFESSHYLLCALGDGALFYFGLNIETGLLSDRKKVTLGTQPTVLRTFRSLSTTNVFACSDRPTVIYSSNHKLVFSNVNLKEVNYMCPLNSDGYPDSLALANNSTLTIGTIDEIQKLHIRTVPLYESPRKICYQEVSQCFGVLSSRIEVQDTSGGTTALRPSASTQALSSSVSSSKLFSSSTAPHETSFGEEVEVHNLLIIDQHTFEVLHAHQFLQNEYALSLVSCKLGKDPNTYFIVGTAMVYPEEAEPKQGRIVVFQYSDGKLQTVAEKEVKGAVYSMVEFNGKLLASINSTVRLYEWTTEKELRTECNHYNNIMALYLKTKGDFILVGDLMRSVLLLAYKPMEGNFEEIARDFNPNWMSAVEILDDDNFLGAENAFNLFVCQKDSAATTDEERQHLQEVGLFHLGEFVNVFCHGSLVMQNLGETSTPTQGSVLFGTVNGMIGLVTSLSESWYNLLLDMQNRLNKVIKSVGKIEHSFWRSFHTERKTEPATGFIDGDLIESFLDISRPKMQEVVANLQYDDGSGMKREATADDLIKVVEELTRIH

IKZF2 (Helios), sequence (Q9UKS7 whole entry): as the sequence (Q9UKS7 whole entry) above
IKZF2 (Helios), sequence (Q96SW2 whole entry): as the sequence (Q96SW2 whole entry) above
IKZF2 (Helios), sequence (Q16531 whole entry partner): as the sequence (Q16531 whole entry partner) above

| Structure (SMILES) | DC50 (IKZF2 (Helios)) | remaining activity at 1 µM (Helios (IKZF2)) | remaining activity at 10 µM (Helios (IKZF2)) | Dmax (IKZF2 (Helios)) | IKZF2 degradation activity (in words, comment on Table 1) (Helios (IKZF2); as shown in Table 1) |
| --- | --- | --- | --- | --- | --- |
| COc1cc2c(C)c(C(=O)N3CCC(c4ccc5c(c4)CN(C4CCC(=O)NC4=O)C5=O)CC3)[nH]c2cc1[N+](=O)[O-] (stereo not drawn) [Compound 97, 3-(5-(1-(5-methoxy-3-methyl-6-nitro-1H-indole-2-carbonyl)piperidin-4-yl)-1-oxoinsoindolin-2-yl)piperidine-2,6-dione] | 0.01 to 0.1 µM | 14.6% | 21.4% | – | – |
| Cc1c(C(=O)N2CCC(c3ccc4c(c3)CN(C3CCC(=O)NC3=O)C4=O)CC2)[nH]c2cc(Cl)c(F)cc12 (stereo not drawn) [Compound 102, 3-(5-(1-(6-chloro-5-fluoro-3-methyl-1H-indole-2-carbonyl)piperidin-4-yl)-1-oxoinsoindolin-2-yl)piperidine-2,6-dione] | < 0.01 µM | 21.8% | 26.2% | 100% | – |
| Cc1c(C(=O)N2CCC(c3ccc4c(c3)CN(C3CCC(=O)NC3=O)C4=O)CC2)[nH]c2cc(Cl)c(O)cc12 (stereo not drawn) [Compound 101, 3-(5-(1-(6-chloro-5-hydroxy-3-methyl-1H-indole-2-carbonyl)piperidin-4-yl)-1-oxoinsoindolin-2-yl)piperidine-2,6-dione] | 0.01 to 0.1 µM | 15.7% | 20.7% | 100% | – |
| Cc1cc2c(C)c(C(=O)N3CCC(c4ccc5c(c4)CN(C4CCC(=O)NC4=O)C5=O)CC3)[nH]c2cc1[N+](=O)[O-] (stereo not drawn) [Compound 85, 3-(5-(1-(3,5-dimethyl-6-nitro-1H-indole-2-carbonyl)piperidin-4-yl)-1-oxoinsoindolin-2-yl)piperidine-2,6-dione] | 0.1 to 1 µM | – | 11% | – | – |
| CN(C)Cc1c(C(=O)N2CCC(c3ccc4c(c3)CN(C3CCC(=O)NC3=O)C4=O)CC2)[nH]c2cc(Cl)ccc12 (stereo not drawn) [Compound 87, 3-(5-(1-(6-chloro-3-((dimethylamino)methyl)-1H-indole-2-carbonyl)piperidin-4-yl)-1-oxoinsoindolin-2-yl)piperidine-2,6-dione] | 0.1 to 1 µM | – | 8.7% | – | – |
| Cc1c(C(=O)N2CCC(c3ccc4c(c3)CN(C3CCC(=O)NC3=O)C4=O)CC2)[nH]c2cc([N+](=O)[O-])c(Cl)cc12 (stereo not drawn) [Compound 84, 3-(5-(1-(5-chloro-3-methyl-6-nitro-1H-indole-2-carbonyl)piperidin-4-yl)-1-oxoinsoindolin-2-yl)piperidine-2,6-dione] | 0.1 to 1 µM | – | 9.7% | – | – |
| CCNC(=O)Nc1ccc2c(C)c(C(=O)N3CCC(c4ccc5c(c4)CN(C4CCC(=O)NC4=O)C5=O)CC3)[nH]c2c1 (stereo not drawn) [Compound 75, 1-(2-(4-(2-(2,6-dioxopiperidin-3-yl)-1-oxoindolin-5-yl)piperidine-1-carbonyl)-3-methyl-1H-indol-6-yl)-3-ethylurea] | 0.1 to 1 µM | 29.6% | 19% | – | – |
| Cc1c(C(=O)N2CCC(c3ccc4c(c3)CN(C3CCC(=O)NC3=O)C4=O)CC2)[nH]c2cc(Br)ccc12 (stereo not drawn) [Compound 49, 3-(5-(1-(6-bromo-3-methyl-1H-indole-2-carbonyl)piperidin-4-yl)-1-oxoinsoindolin-2-yl)piperidine-2,6-dione] | 0.1 to 1 µM | – | 8.67% | – | – |
| Cc1c(C(=O)N2C3CCC2CC(c2ccc4c(c2)CN(C2CCC(=O)NC2=O)C4=O)C3)[nH]c2cc(Cl)ccc12 (stereo not drawn) [Compound 58, 3-(5-(8-(6-chloro-3-methyl-1H-indole-2-carbonyl)-8-azabicyclo[3.2.1]octan-3-yl)-1-oxoinsoindolin-2-yl)piperidine-2,6-dione] | 0.01 to 0.1 µM | – | 5.2% | – | excellent IKZF2 degradation activity |
| Cc1c(C(=O)N2CCC(c3ccc4c(c3)CN(C3CCC(=O)NC3=O)C4=O)CC2)[nH]c2cc([N+](=O)[O-])c(O)cc12 (stereo not drawn) [Compound 86, 3-(5-(1-(5-hydroxy-3-methyl-6-nitro-1H-indole-2-carbonyl)piperidin-4-yl)-1-oxoinsoindolin-2-yl)piperidine-2,6-dione] | 0.01 to 0.1 µM | – | 9.9% | – | – |
